Experimental data from US4120947A, “Xanthine compounds and method of treating bronchospastic and allergic diseases” (priority 1976, dated 1978).
“Also recorded” adds a separate entry of the source. Where two headings read alike, the source gives them in different places.

Tests used:
[1] = tested on: histamine-induced bronchoconstriction in the dog; test: CP: cardiopulmonary activity against histamine-induced bronchoconstriction in the dog; assay type: in vivo; settings: histamine challenge
Description: Pretreatment with bronchodilator drugs aims to block the bronchospastic response to histamine. Each dog serves as its own control.

[2] = LD50 mouse; assay type: in vivo; settings: in vivo, po
Description: (§1) The LD50 was determined in three species, the mouse (male, 18-25 g), the albino rat (female, 150-200 g) and the albino guinea pig (male 180-280 g) by oral administration and in the albino rat by intraperitoneal administration. The animals are fasted overnight prior to testing. Six groups of ten animals are used; five groups are dosed with the test substance, the sixth group serves as a control and receives the drug vehicle at the highest test concentration. The compounds were administered in a 0.5% gum tragacanth solution in distilled water using a constant logarithmic increment in dose. Dose volume ranged from […].
(§2) The animals were housed five per cage (rat and guinea pig) or ten per cage (mouse) with free access to food and water. The number of dead animals was recorded daily for five consecutive days. The total mortality per group of ten for each dose level was recorded and LD50 with Confidence Limits calculated according to the method described by Weil, C.

[3] = tested on: mouse; test: LD50 mouse; assay type: in vivo
Description: as §1, §2

[4] = tested on: histamine-induced bronchoconstriction in the guinea pig; test: BD: bronchodilator activity against histamine-induced bronchoconstriction in the guinea pig; settings: for inhibition in vivo at 10 mg/kg / inhibition in vivo at 20 mg/kg: Cavia porcellus, po, read-out: BD (guinea pig), % protection
Description: BD Bronchodilator activity evaluated against histamine-induced bronchoconstriction in the guinea pig, and expressed as % protection at the stated time interval (in minutes and hours) post-drug against histamine agonist. Doses are expressed in milligrams per kilogram of body weight (mpk) per os (po) or intraperitoneally (ip).
A modification of the method of Siegmund. O.H., et al., J. Pharmacol. and Exp. Therap. 90:254-9, 1947, is used. Healthy guinea pigs weighing from 250 to 300 grams are placed four at a time and separated by wiring screening in an 11 liter plastic chamber, at the time of peak activity following drug administration. The challenge consists of histamine diphosphate (1% solution) aerosolized in a de Vilbiss -40 nebulizer at 200 mm Hg. Times for prostration are recorded.
Per cent protection is calculated as follows: [formula] wherein the times are measured in seconds.
In interpreting the BD data it should be noted that a dose giving less than 40-50% protection is not considered useful. Differences in percent protection of less than 10% are probably not significant.

[5] = in vivo
Description: as §1, §2

[6] = tested on: albino rat; test: in vivo
Description: as §1, §2

[7] = tested on: guinea pig tracheal chain preparation; test: SP: spasmolytic activity in vitro, guinea pig tracheal chain preparation; settings: Cavia porcellus, read-out: SP in vitro C, molar concentration required to produce maximum relaxation
Description: SP Spasmolytic activity evaluated in vitro using guinea pig tracheal chain preparation, and expressed as the molar (M) concentration required to produce maximum relaxation. The method used in that of Castillo and de Beer, J. Pharmac. Expt. Therap. 90, 104, 1947.

[8] = tested on: antigen-induced bronchconstriction in rats sensitized with N. brasliensis; test: AA: antiallergy (anti-anaphylactic) activity against antigen-induced bronchoconstriction in sensitized rats
Description: The animals are subdivided into control and test groups. Test animals receive a drug either orally, intraperitoneally or intravenously and are challenged with intravenous antigen at fixed time intervals after dosing. Antigen-induced increases in tracheal pressure are monitored and reflect the extent of bronchoconstriction.

[9] = tested on: passive cutaneous anaphylaxis in the rat; test: PCA: passive cutaneous anaphylaxis in the rat; assay type: in vivo; settings: for antiallergy activity, in words: rat passive cutaneous anaphylaxis
Description: PCA Antianaphylactic activity against passive cutaneous anaphylaxis in the rat, expressed as % protection against antigen-induced wheal formation.
The method used is that of Ogilvie, B. M., Immunology 12, 113-131 (1967). Reaginic […] antibodies develope in the rat following subcutaneous injection of Nippostrongylus brasiliensis larvae. Antisera, collected 28 days later are injected subcutaneously into new rats.

[10] = guinea pig, comparison with corresponding compound
[11] = Rattus norvegicus, ip, 1 h, read-out: AA (rat), % protection
[12] = Rattus norvegicus, po, 1 h, read-out: AA (rat), % protection

SMILES | cardiopulmonary / bronchodilator activity in the dog, in words [1] | LD50 [2] | inhibition in vivo at 10 mg/kg ([4]; 0.5 h) | inhibition in vivo at 10 mg/kg ([4]; 1 h) | inhibition in vivo at 10 mg/kg ([4]; 6 h) | inhibition in vivo at 10 mg/kg ([4]; 10 h) | onset and duration of action, in words [4, 10] | LD50 ([5]; guinea pig, po) | LD50 ([5]; in vivo, rat, ip) | LD50 ([5]; in vivo, rat, po) | EC (maximum relaxation) [7] | inhibition in vivo at 2.5 mg/kg [8, 12] | Wheal Diameter, % Δ ([9]; 20 mg/kg po) | Wheal Diameter, Response (Mean ± S.E.M.) ([9]; 20 mg/kg po) | Wheal Intensity, % Δ ([9]; 20 mg/kg po) | Wheal Intensity, Response (Mean ± S.E.M.) ([9]; 20 mg/kg po) | antiallergy activity, in words [9] | further results
CCC(C)Cn1c(=O)n(C)c(=O)c2c1nc(C)n2C(=O)OC (stereo not drawn) [Compound 4387, 1,8-dimethyl-3-(2-methyl-1-butyl)-7-carbomethoxyxanthine] | significantly reduce the decrease in pulmonary compliance and increase in pulmonary resistance due to histamine administration; also recorded: about as effective as the corresponding 3-isobutyl compound (4390) | 54.9 mg/kg | 44% | 87% | 59% | 37% | effective at lower doses and for longer duration | 27.4 mg/kg | 18.3 mg/kg | 60 mg/kg | 1000 µM | 72% | 57% | 0.81 ± 0.13 cm | 38% | 1.18 ± 0.21 | effective antiallergy agents | lethality relative to 4390 [3]: about one-half; inhibition in vivo at 20 mg/kg ([4]; 1 h): 94%; inhibition in vivo at 20 mg/kg ([4]; 6 h): 92%; bronchodilator effectiveness, in words [4, 10]: shows greater activity; also recorded: about as effective as the corresponding 3-isobutyl compound (4390); lethality relative to 4390 [6]: about one-half; inhibition in vivo at 5 mg/kg [8, 11]: 55%; inhibition in vivo at 75 mg/kg [8, 11]: 70%; inhibition in vivo at 5 mg/kg [8, 12]: 68%; inhibition in vivo at 10 mg/kg [8, 12]: 57%; antiallergy effectiveness, in words ([8]; rat, comparison with 4390): about as effective as the corresponding 3-isobutyl compound (4390); Wheal Diameter, % Δ ([9]; 10 mg/kg po): 41%; Wheal Diameter, Response (Mean ± S.E.M.) ([9]; 10 mg/kg po): 1.41 ± 0.17 cm; Wheal Intensity, % Δ ([9]; 10 mg/kg po): 33%; Wheal Intensity, Response (Mean ± S.E.M.) ([9]; 10 mg/kg po): 1.65 ± 0.20
COC(=O)n1c(C)nc2c1c(=O)n(C)c(=O)n2CC(C)C [Compound 4390, 1,8-dimethyl-3-isobutylxanthine-7-carboxylic acid, methyl ester] | significantly reduce the decrease in pulmonary compliance and increase in pulmonary resistance due to histamine administration | 27.6 mg/kg | 49% | 86% | 79% | 48% | effective at lower doses and for longer duration | 25.2 mg/kg | 9.1 mg/kg | 33.5 mg/kg | 1000 µM | 77% | 60% | 0.74 ± 0.21 cm | 53% | 1.10 ± 0.23 | effective antiallergy agents | lethal ([4]; guinea pig, 20 mpK po): 1/2; inhibition in vivo at 2 mg/kg [8, 11]: 60%; inhibition in vivo at 4 mg/kg [8, 11]: 52%
